Where a SMILES comes first, the peptide text is derived from it.
Key:
[1] = rabbit, in vivo
Experimental: (§1) This study was conducted to determine the concentrations of Compound 1 in vitreous humor (VH) and retina tissue following intravitreal injections of male Dutch Belted rabbits. Concentrations were determined in tissues at 24, 72, 168, and 240 hours post-dose of a 50 μL bilateral intravitreal (IVT) dose.
(§2) Test system included the following: • Species/Strain/Gender: Male Dutch Belted Rabbits • Supplier: Covance Research Products, Inc. • Age Range: 4 to 5 months • Weight at Receipt (Range of • Weights): 1.51-1.85 kg • Administration Route: Intravitreal (IVT) injection • Duration of Treatment: Single Dose per eye • Formulation Concentrations: 2.0, 1.0, and 0.5 mg/mL Compound 1 triacetate • Dose Volume: 50 μL per eye
(§3) An intravitreal (IVT) injection ocular dose of 50 μL was administered to the globe of each of Dutch Belted rabbit eye.
(§4) At the respective time points the rabbits were euthanized by intravenous barbiturate overdose, and eyes were enucleated and snap frozen. Vitreous humor and retina were collected from all animals and analyzed for Compound 1 by LC-MS/MS

[2] = rat, in vivo
Experimental: (§5) Concentrations were determined in tissues at 24 (Group 1), and 72 hours (Groups 1 and 2) post-dose of a 5 μL bilateral intravitreal (IVT) dose.
(§6) Test system included the following: • Species/Strain/Gender: Norway Brown Rats • Supplier: Charles River, Inc. • Age Range: 1 to 2 months • Weight at Receipt (Range of • Weights): 165.9-181.2 g • Administration Route: Intravitreal (IVT) injection • Duration of Treatment: Single dose per eye • Formulation Concentrations: 0.06 mg/mL ONL-1204 triacetate • Dose Volume: 5 μL per eye Harvesting of Ocular Tissues
(§7) Rats were euthanized by intravenous barbiturate overdose, and eyes were enucleated and snap frozen. Vitreous humor (VH) and retina were collected from all animals and analyzed for Compound 1 by LC-MS/MS.
(§8) For each VH unknown or control blank: Weigh VH into a homogenization tube. Add 4 times the VH weight (mg) of ACN:water:1 M hydrochloric acid (70:20:10, v/v/v) (μL) to the homogenization tube. Add zirconium oxide beads, 2.8 and 1.4 mm size. Homogenize all samples on Precellys®: 5500 rpm, 3×30 second cycles, and 20 seconds between cycles, at a temperature between −10 to 0° C.
(§9) For each retina unknown or control blank: • Weigh retina tissue into a homogenization tube. • Add 4 times the tissue weight (mg) of ACN:water:1 M hydrochloric acid (70:20:10, v/v/v) (μL) to the homogenization tube. • Add zirconium oxide beads, 1.4 mm size. • Homogenize all samples on Precellys®: 5500 rpm, 3×30 second cycles, and 20 seconds between cycles, at a temperature between −10 to 0° C. Preparation of Standards, Samples, and Blanks Preparation of Calibration Stock and Working Standards
(§10) One hundred (100) μL of each vitreous humor sample with ACN: formic acid (1000:1, v/v) was then aliquoted. One hundred (100) μL of DMSO:water:formic acid (50:40:10) was added to each vitreous humor sample. The samples were vortex mixed then centrifuged for 10 minutes at 14,000 rpm (4° C.). To 50.0 μL supernatant, 100 μL of working internal standard (50,000 ng/mL APi1887 in water) (water for the blank without internal standard), and 150 μL of water were added. The samples were then vortex mixed and transferred to an autosampler plate for analysis.
(§11) In a polypropylene tube, 50 μL of Brown Norway rat unknown homogenate, bovine control blank or calibration standard Bovine homogenate was added. Fifty (50) μL of DMSO:water:formic acid (50:40:10) was added to each sample. The samples were then vortex mixed and centrifuged for 10 minutes at 14,000 rpm (4° C.). Eighty (80) μL of each sample supernatant was then aliquoted to a 96-well autosampler plate. Forty (40) μL of working internal standard (5,000 ng/mL APi1887 in water) (water for the blank without internal standard), and 120 μL of water were added. The samples were then mixed with a multichannel pipette and analyzed.

[3] = Rabbit intravitreal ocular pharmacokinetic study (vitreous humor and retina); details: IVT in Poloxamer or Polysorbate formulations, 10 day course
Experimental: as §1, §2, §3, §4

[4] = pH-solubility titration (visual: precipitate, turbidity, viscosity, gel); type: physicochemical
Experimental: Compound 1 obtained as a trihydrochloride salt, as described in Example 1, and was screened for aqueous solubility at different pHs, by carrying out pH titrations according to the following protocol. In some cases Met-12 was run through an identical experimental procedure to determine its solubility pH profile under the same conditions.
Compound 1 (10 mg) was dissolved in water (270-900 ? L) in a 2 mL clear plastic centrifuge tube with vortexing to give a pH ˜2.4 solution. […] This solution was then diluted with the appropriate amount of cosolvent or other excipient (sugar, surfactant etc.) to produce a clear acidic solution of 10 mg of Compound 1 in […] of the test solution at room temperature ([…]). Small aliquots of a basic solution (usually sodium hydroxide 1.0 M or 0.1 M, but sometimes other bases when investigating buffers) were added using a microliter syringe. Between additions the solution was mixed by vortexing, and the solution was inspected visually for precipitates of various types, turbidity, as a likely sign of microprecipitates, and viscosity to detect gel formation. pH measurements were taken at all these observation points. Some experiments titrated from the endogenous low pH to pH 10, but later titrations were not carried much above pH 7, or sometimes even lower.

[5] = in vivo; details: male, Dutch Belted, rabbit
Experimental: as §1, §2, §3, §4

[6] = in vivo; details: Brown Norway, rat, 0.3 ug/eye, Mean concentration in rat retina
Experimental: as §5, §6, §7, §8, §9, §10, §11

[7] = 0.025 mg/eye, Calculated Concentration in vitreous humor
[8] = 0.05 mg/eye, Calculated Concentration in retina
[9] = 0.05 mg/eye, Calculated Concentration in vitreous humor
[10] = 0.05 mg/eye, Mean concentration in retina
[11] = 0.1 mg/eye, Calculated Concentration in retina
[12] = 0.1 mg/eye, Calculated Concentration in vitreous humor
[13] = 0.1 mg/eye, Mean concentration in retina

**Q.** What does the source list for `CC[C@H](C)[C@H](NC(=O)[C@H](Cc1ccc(O)cc1)NC(=O)[C@H](CC(N)=O)NC(=O)[C@@H](NC(=O)[C@H](C)NC(=O)CNC(=O)[C@H](CC(C)C)NC(=O)[C@H](Cc1ccc(O)cc1)NC(=O)[C@@H](NC(=O)[C@H](Cc1cnc[nH]1)NC(=O)[C@@H](N)Cc1cnc[nH]1)[C@@H](C)CC)C(C)C)C(=O)N[C@@H](Cc1ccc(O)cc1)C(N)=O` [Compound 1, His-His-Ile-Tyr-Leu-Gly-Ala-Val-Asn-Tyr-Ile-Tyr-NHz] (H-HHIYLGAVNYIY-NH2)?
**A.** Terminal t1/2 in Retina ([1]; male, Dutch Belted): 199 h; Mean concentration in retina ([1]; male, Dutch Belted, 0.025 mg/eye, 168 h): 1440 ng/g; VH AUC0-last of Group 1 (2 mg/mL) relative to Groups 2 and 3 (0.5 mg/mL) [1]: approximate four times greater AUC; Clearance from VH in the first 24 hours [2]: about half the drug cleared the VH; Terminal half-life in VH [2]: on the order of several days; Irritation / tolerability [3]: no signs of irritation or tolerability issues; Aqueous solubility (in words) [4]: poor aqueous solubility above pH˜3; Behaviour on standing overnight [4]: the solution gelled, and the pH dropped by about 0.2 units; solubility ([4]; pH 2.4): ≥ 40 mg/mL; level at 24 h [5, 7]: 22000 ng/mL; level at 168 h [5, 7]: 22300 ng/mL; level at 240 h [5, 7]: 18000 ng/mL; tissue level at time at 168 h ([5]; 0.025 mg/eye, Mean concentration in retina): 912 ng/g; tissue level at time at 72 h [5, 8]: 172 ng/g; tissue level at time at 168 h [5, 8]: 204 ng/g; tissue level at time at 240 h [5, 8]: 109 ng/g; level at 24 h [5, 9]: 44000 ng/mL; level at 72 h [5, 9]: 39600 ng/mL; level at 168 h [5, 9]: 25900 ng/mL; tissue level at time at 24 h [5, 10]: 206 ng/g; tissue level at time at 72 h [5, 10]: 95 ng/g; tissue level at time at 168 h [5, 10]: 51 ng/g; tissue level at time at 240 h [5, 10]: 27.3 ng/g; level at 240 h [5, 11]: 112 ng/mL; tissue level at time at 240 h [5, 11]: 559 ng/g; level at 24 h [5, 12]: 75900 ng/mL; level at 72 h [5, 12]: 125000 ng/mL; level at 168 h [5, 12]: 84800 ng/mL; level at 240 h [5, 12]: 79400 ng/mL; tissue level at time at 24 h [5, 13]: 596 ng/g; tissue level at time at 72 h [5, 13]: 1630 ng/g; tissue level at time at 168 h [5, 13]: 354 ng/g; tissue level at time at 240 h [5, 13]: 490 ng/g; half-life ([5]; Terminal t1/2 in Retina): 168 h; half-life ([5]; t1/2 in VH): > 900 h; tissue level at time at 24 h [6]: 1210 ng/g; tissue level at time at 72 h [6]: 570 ng/g
